Results from PubChem BioAssay AID1259407 (Chemical Carcinogenesis Research Information System (CCRIS), 2018).
Calls of active or inactive are those of the source. How the calls were made is not given here.

Tested on: CCRIS mutagenicity, Ames/micronucleus/aberration tests
Assay: CCRIS mutagenicity studies
[1] = Test System: AMES SALMONELLA TYPHIMURIUM, Strain/Indicator: TA100, Metabolic Activation: NONE, Method: STANDARD PLATE

Structure (SMILES): CNc1ccc(NCCO)c2c1C(=O)c1ccccc1C2=O
- mutagenic call (Test System: AMES SALMONELLA TYPHIMURIUM, Strain/Indicator: TA98, Metabolic Activation: NONE, Method: STANDARD PLATE): inactive; negative
- mutagenic call (Test System: AMES SALMONELLA TYPHIMURIUM, Strain/Indicator: TA98, Metabolic Activation: RAT, LIVER, S-9, AROCLOR 1254, Method: STANDARD PLATE): active; positive
- mutagenic call [1]: inactive; negative
- mutagenic call (Test System: AMES SALMONELLA TYPHIMURIUM, Strain/Indicator: TA100, Metabolic Activation: RAT, LIVER, S-9, AROCLOR 1254, Method: STANDARD PLATE): inactive; negative
- mutagenic call (Test System: AMES SALMONELLA TYPHIMURIUM, Strain/Indicator: TA102, Metabolic Activation: NONE, Method: STANDARD PLATE): inactive; negative
- mutagenic call (Test System: AMES SALMONELLA TYPHIMURIUM, Strain/Indicator: TA102, Metabolic Activation: RAT, LIVER, S-9, AROCLOR 1254, Method: STANDARD PLATE): active; positive
- mutagenic call (Test System: AMES SALMONELLA TYPHIMURIUM, Strain/Indicator: TA104, Metabolic Activation: NONE, Method: STANDARD PLATE): inactive; negative
- mutagenic call (Test System: AMES SALMONELLA TYPHIMURIUM, Strain/Indicator: TA1537, Metabolic Activation: NONE, Method: STANDARD PLATE): inactive; negative
- mutagenic call (Test System: AMES SALMONELLA TYPHIMURIUM, Strain/Indicator: TA1537, Metabolic Activation: RAT, LIVER, S-9, AROCLOR 1254, Method: STANDARD PLATE): active; positive
- mutagenic call (Test System: AMES SALMONELLA TYPHIMURIUM, Strain/Indicator: TA1538, Metabolic Activation: NONE, Method: STANDARD PLATE): inactive; negative
- mutagenic call (Test System: MOUSE LYMPHOMA, Strain/Indicator: L5178Y (TK+/TK-), Metabolic Activation: NONE, Method: SUSPENSION PLATE): active; positive
- mutagenic call (Test System: MOUSE LYMPHOMA, Strain/Indicator: L5178Y (TK+/TK-), Metabolic Activation: NONE, Method: SUSPENSION/PLATE): active; positive
- mutagenic call (Test System: MOUSE LYMPHOMA, Strain/Indicator: L5178Y (TK+/TK-), Metabolic Activation: RAT, LIVER, S-9, AROCLOR 1254, Method: SUSPENSION PLATE): active; positive

Structure (SMILES): CC(Br)C(=O)Nc1ccccc1 (centres undefined)
- mutagenic call (Test System: AMES SALMONELLA TYPHIMURIUM, Strain/Indicator: TA100, Metabolic Activation: MOUSE, LIVER, S-9, AROCLOR 1254, Method: STANDARD PLATE): active; positive
- mutagenic call [1]: inactive; negative

Structure (SMILES): CCCC(=O)c1cc(O)c(O)cc1O
- mutagenic call (Test System: AMES SALMONELLA TYPHIMURIUM, Strain/Indicator: TA98, Metabolic Activation: HAMSTER, LIVER, S-9, AROCLOR 1254 (10%), Method: PREINCUBATION): active; positive
- mutagenic call (Test System: AMES SALMONELLA TYPHIMURIUM, Strain/Indicator: TA98, Metabolic Activation: NONE, Method: PREINCUBATION): inactive; negative
- mutagenic call (Test System: AMES SALMONELLA TYPHIMURIUM, Strain/Indicator: TA98, Metabolic Activation: RAT, LIVER, S-9, AROCLOR 1254 (10%), Method: PREINCUBATION): inactive; negative
- mutagenic call (Test System: AMES SALMONELLA TYPHIMURIUM, Strain/Indicator: TA100, Metabolic Activation: HAMSTER, LIVER, S-9, AROCLOR 1254 (10%), Method: PREINCUBATION): inactive; negative
- mutagenic call (Test System: AMES SALMONELLA TYPHIMURIUM, Strain/Indicator: TA100, Metabolic Activation: NONE, Method: PREINCUBATION): inactive; negative
- mutagenic call (Test System: AMES SALMONELLA TYPHIMURIUM, Strain/Indicator: TA100, Metabolic Activation: RAT, LIVER, S-9, AROCLOR 1254 (10%), Method: PREINCUBATION): active; positive
- mutagenic call (Test System: AMES SALMONELLA TYPHIMURIUM, Strain/Indicator: TA1535, Metabolic Activation: HAMSTER, LIVER, S-9, AROCLOR 1254 (10%), Method: PREINCUBATION): inactive; negative
- mutagenic call (Test System: AMES SALMONELLA TYPHIMURIUM, Strain/Indicator: TA1535, Metabolic Activation: NONE, Method: PREINCUBATION): inactive; negative
- mutagenic call (Test System: AMES SALMONELLA TYPHIMURIUM, Strain/Indicator: TA1535, Metabolic Activation: RAT, LIVER, S-9, AROCLOR 1254 (10%), Method: PREINCUBATION): inactive; negative
- mutagenic call (Test System: AMES SALMONELLA TYPHIMURIUM, Strain/Indicator: TA1537, Metabolic Activation: HAMSTER, LIVER, S-9, AROCLOR 1254 (10%), Method: PREINCUBATION): inactive; negative
- mutagenic call (Test System: AMES SALMONELLA TYPHIMURIUM, Strain/Indicator: TA1537, Metabolic Activation: NONE, Method: PREINCUBATION): inactive; negative
- mutagenic call (Test System: AMES SALMONELLA TYPHIMURIUM, Strain/Indicator: TA1537, Metabolic Activation: RAT, LIVER, S-9, AROCLOR 1254 (10%), Method: PREINCUBATION): active; positive

Structure (SMILES): CSC(=O)c1cccc2nnsc12
- mutagenic call (End Point: In vivo micronucleus, Test System: Femoral bone marrow polychromatic erythrocytes, Species: Mouse, Strain/Sex: Female, Route: Gavage): inactive; negative; strain is not given by dpr reviewer
- mutagenic call (End Point: In vivo micronucleus, Test System: Femoral bone marrow polychromatic erythrocytes, Species: Mouse, Strain/Sex: Male, Route: Gavage): inactive; negative; strain is not given by dpr reviewer
